This is an account of results in patent publication US8134015B2, “Compound inhibiting in vivo phosphorous transport and medicine containing the same” (Kyowa Hakko Kirin Co., Ltd., priority 2003, dated 2012).

One assay deals with T1, rat NaPi-2b (Rattus norvegicus, UniProt Q9JJ09).
T1 construct: expressed in transfected cells; host or cells: Xenopus oocytes injected with cRNA
T1 sequence (Q9JJ09 1-695): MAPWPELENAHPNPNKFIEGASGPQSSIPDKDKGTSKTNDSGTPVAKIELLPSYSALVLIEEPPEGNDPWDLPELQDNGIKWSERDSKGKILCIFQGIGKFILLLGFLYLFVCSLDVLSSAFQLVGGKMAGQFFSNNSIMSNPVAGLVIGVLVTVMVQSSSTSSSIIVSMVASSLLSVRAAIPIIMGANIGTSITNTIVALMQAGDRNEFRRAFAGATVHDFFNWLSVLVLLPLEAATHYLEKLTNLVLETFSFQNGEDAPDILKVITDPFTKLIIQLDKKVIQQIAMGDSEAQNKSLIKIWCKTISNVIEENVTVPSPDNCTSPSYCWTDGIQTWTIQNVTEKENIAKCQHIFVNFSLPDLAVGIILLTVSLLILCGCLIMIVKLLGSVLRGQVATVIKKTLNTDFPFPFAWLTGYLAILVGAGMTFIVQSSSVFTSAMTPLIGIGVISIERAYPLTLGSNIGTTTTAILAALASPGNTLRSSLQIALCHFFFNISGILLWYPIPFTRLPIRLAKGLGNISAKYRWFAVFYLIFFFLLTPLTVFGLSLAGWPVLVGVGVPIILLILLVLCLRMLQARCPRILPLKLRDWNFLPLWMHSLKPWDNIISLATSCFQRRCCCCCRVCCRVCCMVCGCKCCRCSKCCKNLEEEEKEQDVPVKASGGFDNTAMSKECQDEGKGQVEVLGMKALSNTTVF
Kind of assay: Sodium-dependent phosphate uptake of Xenopus oocytes which expressed NaPi-2b (32P). The assay is classed as cell-based. Conditions: Xenopus oocytes expressing rat NaPi-2b, 32P radioactive phosphorus; read-out: IC50 (phosphate uptake inhibitory activity). The essentials:
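Steps: rat NaPi-2b cDNA cloned from small intestine; cRNA made and injected into oocytes; 2-day expression; 32P phosphate uptake with compound; % inhibition at 300/100 μM taken from one curve.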
Regarding `CCN(CC)CCNCc1ccc(C(=O)Nc2ccc(Br)cc2C(=O)N/N=C/c2ccc(F)cc2)cc1` [Compound 295, N-[4-Bromo-2-(4-fluoro-benzylidene-hydrazinocarbonyl)-phenyl]-4-[(2-diethylamino-ethylamino)-methyl]-benzamide], the IC50 stood at 7.58 µM.
Same read-out and setting: next, `COc1ccc(/C=N/NC(=O)c2cc(Br)ccc2NC(=O)c2ccc(CN3CCN(CC(=O)N4CCOCC4)CC3)cc2)cc1` [Compound 307, N-[4-Bromo-2-(4-methoxy-benzylidene-hydrazinocarbonyl)-phenyl]-4-[4-(2-morpholin-4-yl-2-oxo-ethyl)-piperazin-1-ylmethyl]-benzamide]: 41.2 µM; `O=C(Nc1sc2c(c1C(=O)N/N=C/c1ccc(Cl)c(C(F)(F)F)c1)CCC2)c1cccc(CN2CCC(CO)CC2)c1` [Compound 820, N-[3-(4-Chloro-3-trifluoromethyl-benzylidene-hydrazinocarbonyl)-5,6-dihydro-4H-cyclopenta[b]thiophen-2-yl]-3-(4-hydroxymethyl-piperidin-1-ylmethyl)-benzamide]: 17.9 µM; `Cc1ccc(/C=N/NC(=O)c2ccccc2NC(=O)c2ccncc2)cc1` [Compound 137, N-[2-(4-Methyl-benzylidene-hydrazinocarbonyl)-phenyl]-isonicotinamide]: 3 µM.
Still for that read-out and setting: next, `Cc1ccc(/C=N/NC(=O)c2c(C)csc2NC(=O)c2cccc(CN3CCC(CO)CC3)c2)cc1C` [Compound 599, N-[3-(3,4-Dimethyl-benzylidene-hydrazinocarbonyl)-4-methyl-thiophen-2-yl]-3-(4-hydroxymethyl-piperidin-1-ylmethyl)-benzamide]: less than 3 µM; `Cc1ccc(/C=N/NC(=O)c2cc(Br)ccc2NC(=O)c2ccco2)cc1C` [Compound 155, Furan-2-carboxylic acid [4-bromo-2-(3,4-dimethyl-benzylidene-hydrazinocarbonyl)-phenyl]-amide]: 0.32 µM; `Cc1ccc(/C=N/NC(=O)c2cc(Br)ccc2NC(=O)c2ccc(CN3CCN(CC(=O)N4CCOCC4)CC3)cc2)cc1C` [Compound 305, N-[4-Bromo-2-(3,4-dimethyl-benzylidene-hydrazinocarbonyl)-phenyl]-4-[4-(2-morpholin-4-yl-2-oxo-ethyl)-piperazin-1-ylmethyl]-benzamide]: 2.47 µM.
Same read-out and setting: next, `CC(O)CN(Cc1ccc(C(=O)Nc2ccc(Br)cc2C(=O)N/N=C/c2ccc(Cl)c(C(F)(F)F)c2)cc1)CC(C)O` (stereo not drawn) [Compound 721, 4-{[Bis-(2-hydroxy-propyl)-amino]-methyl}-N-[4-bromo-2-(4-chloro-3-trifluoromethyl-benzylidene-hydrazinocarbonyl)-phenyl]-benzamide]: 22.3 µM; `O=C(Nc1ccc(Cl)cc1C(=O)N/N=C/c1ccc(OC(F)(F)F)cc1)c1cccc(CSCC(O)CO)c1` (stereo not drawn) [Compound 1012, N-[4-Chloro-2-(4-trifluoromethoxy-benzylidene-hydrazinocarbonyl)-phenyl]-3-(2,3-dihydroxy-propylsulfanylmethyl)-benzamide]: 1.89 µM; `COc1ccc(C(=O)Nc2ccccc2C(=O)N/N=C/C(C)=C/c2ccccc2)cc1OC` [Compound 7, 3,4-Dimethoxy-N-[2-(2-methyl-3-phenyl-allylidene-hydrazinocarbonyl)-phenyl]-benzamide]: 7.15 µM.
As for `CCN(CC)CCN(CCN(CC)CC)Cc1cccc(C(=O)Nc2sc3c(c2C(=O)N/N=C/c2ccc(Cl)c(C(F)(F)F)c2)CCCC3)c1` [Compound 849, 3-{[Bis-(2-diethylamino-ethyl)-amino]-methyl}-N-[3-(4-chloro-3-trifluoromethyl-benzylidene-hydrazinocarbonyl)-4,5,6,7-tetrahydro-benzo[b]thiophen-2-yl]-benzamide], the IC50 was less than 3 µM.

Still in this assay, the particulars now being: phosphate uptake, oocytes expressing rat NaPi-2b; 300 μM, determined from inhibition curve.
`Cc1ccc(/C=N/NC(=O)c2ccsc2NC(=O)c2cccc(CN(CC(C)O)CC(C)O)c2)cc1C` (stereo not drawn) [Compound 670, 3-{[Bis-(2-hydroxy-propyl)-amino]-methyl}-N-[3-(3,4-dimethyl-benzylidene-hydrazinocarbonyl)-thiophen-2-yl]-benzamide]: the inhibition at 300 µM came out at 70.2%.
